In patent publication US7709454B2, “Methods and compositions for inhibiting tumorigenesis” (New York University, priority 1997, dated 2010):
Read-outs that look alike come from different tables or passages of the source.

Experiments:
[1] = tested on: Nude mice/colon (DLD-1, HCT 116); conditions: 2, 5, 10, 40 mg/kg/d; cited from earlier work
Pancreas (MIA PaCa-2) = conditions: cited from earlier work
[2] = tested on: Wap-H-RAS transgenic Mice/mammary, salivary tumors; conditions: 2, 5, 10, 40 mg/kg/d; cited from earlier work
Pancreas (HPAF-11) = conditions: 40 mg/kg/d; cited from earlier work
Pancreas (AsPC-1) = conditions: 40 mg/kg/d; cited from earlier work
Nude mice/lung (HTB177) = conditions: 40 mg/kg/d; cited from earlier work
Nude mice/lung (A549) = conditions: 40 mg/kg/d; cited from earlier work
NIH3T3 = conditions: 2, 5, 10, 40 mg/kg/d; cited from earlier work
Pancreas (Hs 700T) = conditions: 40 mg/kg/d; cited from earlier work
Colon (HCT116) = conditions: 40 mg/kg/d; cited from earlier work
Urinary bladder (EJ) = conditions: 40 mg/kg/d; cited from earlier work
Prostate (DU-145) = conditions: 40 mg/kg/d; cited from earlier work
Nude mice/colon (DLD-1) = conditions: 40 mg/kg/d; cited from earlier work
[3] = tested on: GLI1, PTCH1, BMI1, FOXM1, MITFM expression; assay: qPCR gene expression in melanoma cultures; format: cell-based, human; conditions: 4 h after inhibitor; all cultures
Description: Real-time quantitative PCR amplifications with different primers (Suppl. Materials) were carried out at 60° C. on an Opticon machine (MJ Research) using iQ™ SYBR Green supermix (Biorad) and values calculated using the standard curve method.
(§1) Commercial N-SHH (R&D Systems) was used at 100 nM. 5E1 anti-SHH blocking antibody (Hybridoma Bank, University of Iowa) was used at 10 μg/ml. Forskolin (FK) and 1,9-dideoxyforskolin (ddFK; Sigma) were used at 50 μM. […] MEK-1 (U0126; Promega), EGFR (AG1478; Biosource) and AKT (SH6; Alexis corporation) inhibitors were used at 1, 10, and 40 μM, respectively, dissolved in DMSO. Drug treatments were for 48 h in 2.5% serum. BrdU (Sigma) was pulsed at 4 μg/ml for 2 h before fixation followed by immunodetection with anti-BrdU antibodies (BD Biosciences). The number of viable cells was assessed by Trypan blue exclusion (Promega).

[4] = tested on: frog GLI1, frog Gli2, human GLI3 proteins; assay: localization of Myc-tagged GLI proteins in transfected COS7 cells; format: cell-based
Description: (§2) Cells were transfected (3 μg/p35 plate) with myc-tagged full-length CMV expression vectors for human GLI1 (Lee, J., Platt, K. A., Censullo, P. & Ruiz i Altaba, A. Gli1 is a target of Sonic hedgehog that induces ventral neural tube development. Development 124, 2537-2552 (1997)), HRAS-V12 (kindly provided by Dr. A. Pellicer, NYU) and LacZ with FUGENE (Roche). For selection, SK-MEL-2 and MeWo cells were transfected (4 μg/p60 plate) with PGK-neo and CMV-eGFP alone or in a 1/1/8 ratio with HRAS-12G, GLI3C′ΔClaI (Ruiz i Altaba 1999) or (frog) fGli2C′Δ (Ruiz i Altaba 1999), or in a 1/1/4/4 ratio with HRAS-12G/GLI3C′ΔClaI or HRAS-12G/fGli2C′Δ. After Geneticin (400 μg/ml, Gibco) selection for 20 days, colonies were stained with 0.5% crystal violet. Colony size was measured in duplicate dishes in three independent experiments. For subcellular localization, pCS2-Myc frog Gli2, […], human GLI3 and human GLI3C′ΔCla1 (Ruiz i Altaba, 1999) were transfected into COS-7 (ATCC) cells with our without HRAS (V12).

[5] = tested on: human melanoma primary cultures and cell lines; assay: BrdU incorporation in melanoma primary cultures and cell lines; format: cell-based; conditions: 48 h; all four melanoma cell lines tested and Me-3
Description: Human foreskin melanocytes (Promocell) were grown in serum-free M2 medium (Promocell). WM-115, SK-MEL-2, SK-MEL-5, MeWo and COS7 cell lines (ATCC) were grown as specified. Tumors were chopped, incubated in E-MEM (Sigma) containing collagenase A (300 U/ml, Worthington) and hyaluronidase (100 U/ml, Sigma), mechanically dissociated and plated in E-MEM with 10% FBS, 1 mM sodium pyruvate (GIBCO) and 1 ng/ml EGF (GIBCO). […] All melanoma samples and BCC were obtained following approved protocols.
as §1

GLI1 = assay: localization of transfected GLI1 in COS7 cells (Example 2); format: cell-based, monkey; conditions: inhibitors for 1 h
Description: (§3) Forskolin (FK) and 1,9-dideoxyforskolin (ddFK; Sigma) were used at 50 μM. MEK-1 (U0126; Promega), and AKT (SH6; Alexis corporation) inhibitors were used at 1 and 40 μM, respectively, dissolved in DMSO. U0126 and SH6 were used for 1 h, 48 h post-transfection. Leptomycin B (LMB; Sigma) was used at 5 nM for 6 h, 48 h post-transfection. BrdU (Sigma) was pulsed at 4 μg/ml for 2 h before fixation followed by immunodetection with anti-BrdU antibodies (BD Biosciences). The number of viable cells was assessed by Trypan blue exclusion (Promega). […] (SEQ ID NO: 57) (target-validated from Ambion). […] SEQ ID NO: 58) (Sanchez, P. et al. Inhibition of prostate cancer proliferation by interference with SONIC HEDGEHOG-GLI1 signaling. Proc. Natl. Acad. Sci. USA. 101, 12561-12566 (2004)). siRNA transfections (0.2 μM) were performed with Oligofectamine (Invitrogen) for 48 h.
Cells were transfected (3 μg/p35 plate) with myc-tagged full-length CMV expression vectors with FUGENE (Roche). […]

SK-Mel2 cells = assay: Propidium iodide FACS analyses; format: cell-based, human; conditions: 24 h, compared to DMSO-treated cells
GLI1, GLI3, GLI3R = assay: localization of transfected GLI proteins in SK-Mel2 cells; format: cell-based, human
Description: as §3
Cells were transfected (3 μg/p35 plate) with myc-tagged full-length CMV expression vectors with FUGENE (Roche). Transfections were at equimolar amounts unless otherwise specified with combinations of pCS2-Myc-tagged human GLI1, GLI3, GLI3R (GLI3C′ΔClaI), frog Gli2R (Gli2C′) (Ruiz i Altaba, A. Gli proteins encode context-dependent positive and negative functions: implications for development and disease. Development 126, 3205-3216 (1999), pCMV-HA-tagged GLI1 (ref. 20), HRAS^V12G (from A. Pellicer), NRAS^Q61K (Ackermann, J. et al. Metastasizing melanoma formation caused by expression of activated N-RasQ61K on an INK4a-deficient background. Cancer Res. 65, 4005-4011 (2005)), activated (myristoylated) myc-tagged AKT1 (Upstate), activated MEK1 (p45MAPKK^S222D; from J. Pouyssegur), Myc-tagged SUFUH (Kogerman, P. et al. Mammalian suppressor-of-fused modulates nuclear-cytoplasmic shuttling of Gli-1. Nat Cell Biol. 1, 312-319 (1999)), and pCMV-eGFP or pCMV-lacZ.

all forms of MEK = conditions: cited from earlier work
Frog Gli2 = assay: localization of myc-tagged GLI proteins in transfected COS-7 cells; format: cell-based; conditions: Gli2+RAS*+inhibitor, 1 hr
Description: as §2

[6] = tested on: Human GLI3Rep (GLI3C′ΔCla1); assay: as above; format: cell-based; conditions: GLI3Rep+RAS*+inhibitor, 1 hr
Description: as §2

GLI1 and PTCH1 mRNA = assay: qPCR of GLI1 and PTCH1 mRNA after MEK-1 or AKT inhibitors; format: cell-based, human; conditions: 4 h after treatment
Description: Real-time quantitative PCR amplifications with different primers were carried out at 60° C. on an Opticon machine (MJ Research) using iQTM SYBR Green supermix (Biorad) and values calculated using the standard curve method. Human primer sequences were 5'→3': […] NO: 5) and […] NO: 6); […] NO: 11) and […] NO: 41) and NRAS-R: […] NO: 44); […] NO: 33) and […] NO: 34). For mice: […] NO: 45) and […] NO: 46); Sufu-[…] NO: 47) and Sufu-[…] NO: 48); […] NO: 49) and […] NO: 50); Tyrosinase-[…] NO: 51) and Tyrosinase-[…] NO: 53) and […] NO: 54); […] NO: 55) and […] NO: 56). […] Promega), and AKT (SH6; […] […] Control siRNA: […] […] Proc. Natl. Acad. Sci. USA.

[7] = tested on: GLI1-transfected WM-115, SK-MEL-2 and SK-MEL-5; assay: GLI1-transfection enhanced BrdU incorporation, treatment with inhibitors; format: cell-based, human; conditions: 48 h treatment
Description: as §1

Me-3, SK-Mel2 and WM-115 = assay: BrdU incorporation after MEK1 or AKT inhibitors (Example 2); format: cell-based, human; conditions: 48 h
Description: WM-115, SK-MEL-2 and COS7 cell lines (ATCC) were grown according to the specifications of the provider. The primary Me-3 melanoma (Stecca, B. et al. Melanocyte proliferation and melanoma growth, recurrence and metastasis require sustained SONIC HEDGEHOG-GLI signaling. Submitted. (2006)) was grown in E-MEM with 10% FBS (Hyclone), 1 mM sodium pyruvate (GIBCO) and 1 ng/ml EGF (GIBCO). Proliferating human melanocytes from foreskin (Promocell) were grown in M2 media (Promocell). Melanomas from ±6 month-old Tyr→NRAS^Q61K; Ink4a^−/− mice on a light coat color Dct^−/− background^13 were collected from the skin and lymph nodes. Tumors were dissociated and grown in E-MEM with 10% FBS, 1 mM sodium pyruvate (GIBCO) and 1 ng/ml EGF (GIBCO). Mouse embryonic fibroblasts (MEFs) were prepared from E14.5 Swiss Webster mouse embryos and grown in DMEM with 10% FBS.
Forskolin (FK) and 1,9-dideoxyforskolin (ddFK; Sigma) were used at 50 μM. MEK-1 (U0126; Promega), and AKT (SH6; Alexis corporation) inhibitors were used at 1 and 40 μM, respectively, dissolved in DMSO. U0126 and SH6 were used for 1 h, 48 h post-transfection. Leptomycin B (LMB; Sigma) was used at 5 nM for 6 h, 48 h post-transfection. BrdU (Sigma) was pulsed at 4 μg/ml for 2 h before fixation followed by immunodetection with anti-BrdU antibodies (BD Biosciences). The number of viable cells was assessed by Trypan blue exclusion (Promega). […]

Rat-1 cells = conditions: cited from earlier work
[8] = tested on: SCID mice/melanoma (518A2, 607B); conditions: cited from earlier work
[9] = tested on: Human melanoma cell lines; conditions: cited from earlier work

NC(=O)N1CCC(CC(=O)N2CCC([C@H]3c4ncc(Br)cc4CCc4cc(Cl)cc(Br)c43)CC2)CC1 [SCH66336]
GROWTH INHIBITION [1]: 76%
GROWTH INHIBITION (Pancreas (MIA PaCa-2); 40 mg/kg/d, MIA PaCa-2): 78%
GROWTH INHIBITION (Pancreas (MIA PaCa-2); 2, 5, 10, 40 mg/kg/d): 75%
GROWTH INHIBITION [2]: 67%-86%
GROWTH INHIBITION (Pancreas (HPAF-11)): 67%
GROWTH INHIBITION (Pancreas (AsPC-1)): 72%
GROWTH INHIBITION (Nude mice/lung (HTB177)): 83%
GROWTH INHIBITION (Nude mice/lung (A549)): 70%
GROWTH INHIBITION (NIH3T3): 100%
GROWTH INHIBITION (Pancreas (Hs 700T)): 67%
GROWTH INHIBITION (Colon (HCT116)): 84%
GROWTH INHIBITION (Urinary bladder (EJ)): 100%
GROWTH INHIBITION (Prostate (DU-145)): 86%
GROWTH INHIBITION (Nude mice/colon (DLD-1)): 76%

N#CC(=C(N)Sc1ccccc1N)C(C#N)=C(N)Sc1ccccc1N [U0126, 1,4-diamino-2,3-dicyano-1,4-bis[2-aminophenylthio]butadiene]
GLI1 and PTCH1 levels [3]: reduction of GLI1 and PTCH1 levels
localization of transfected GLI proteins without co-transfected RAS [4]: did not change the localization
effect on RAS-enhanced nuclear accumulation of GLI proteins ([4]; treatment for 1 h, 24 h after transfection): reversed
BrdU incorporation [5]: decreased BrdU incorporation
effect on oncogenic RAS-induced nuclear accumulation of GLI1 (GLI1): reversed
decrease in the number of dividing cells (S/G2/M) (SK-Mel2 cells): 30%
localization of the constitutively nuclear GLI3R (GLI1, GLI3, GLI3R): no effect
localization of GLI1 (GLI1, GLI3, GLI3R; inhibitors for 1 h): increasing cytoplasmic localization of GLI1
localization of GLI3 (GLI1, GLI3, GLI3R; inhibitors for 1 h): unaffected
higher affinity than PD 098059 (all forms of MEK): 44- to 357 fold
cells with cytoplasmic (c) localization (Frog Gli2): 30%
cells with cytoplasmic (c) localization [6]: 1%
GLI1 and PTCH1 mRNA levels (GLI1 and PTCH1 mRNA): rapid reduction of GLI1 and PTCH1 mRNA levels
effect on GLI1-enhanced proliferation [7]: reversed
BrdU incorporation (Me-3, SK-Mel2 and WM-115): decreased BrdU incorporation

CC(C)=CCC/C(C)=C/CC/C(C)=C/CSc1ccccc1C(=O)O [FTS, S-farnesylthiosalicyclic acid]
IC50 (Rat-1 cells): 30 to 40 µM
GROWTH INHIBITION ([8]; 5 mg/kg/d): 82-90% of controls
growth of human melanoma in SCID mice ([8]; mouse, in vivo): significant reduction in the growth
IC50 [9]: 100 µM
